Source: patent US20250268884A1, “Deuterated Domperidone for Treating Gastroparesis” (CinDome Pharma, Inc., priority 2022, published 2025)

Test system: adults with idiopathic or diabetic gastroparesis
Assay: ANMS GCSI-DD total and subscale scores, ANMS GCSI-DD manual scoring method, Phase 2a
Format: in vivo, human
Details: mean, ITT Population
Source text: As known in the art, the ANMS GCSI-DD covers 5 core relevant symptoms of gastroparesis: nausea, early satiety, postprandial fullness, upper abdominal pain and vomiting. Bloating is included as an exploratory symptom. Symptoms are rated on a severity numeric response scale from 0 (none) to 4 (very severe). Vomiting is captured on a frequency response scale and scored as follows: 0 for no episodes, 1 for one episode, 2 for 2 episodes, 3 for 3 episodes, and 4 for 4 or more episodes. In some embodiments, subjects recall symptoms over the previous 24 hours and completes the ANMS GCSI-DD patient-reported symptom questionnaire. In certain embodiments, the total ANMS GCSI-DD score is calculated as the mean of the 3 subscale scores for severity of nausea/vomiting, postprandial fullness/early satiety, and bloating. See, e.g., “The Use Manual for the ANMS GCSI-DD,” American Neurogastroenterology and Motility Society Gastroparesis Cardinal Symptom Index Daily Diary, 2018; https://www.fda.gov/media/125038/download. In other embodiments, the total ANMS GCSI-DD score is calculated using the ‘manual’ scoring method. The ANMS GCSI-DD manual scoring method is generated by summing the scores on each of the five symptom items (nausea, early satiety, postprandial fullness, upper abdominal pain, and number of vomiting episodes) and then dividing by 5, that is the number of items within the gastroparesis related symptom score. […] The ANMS GCSI-DD gastroparesis symptom daily score can range from 0 to 4. High scores on the ANMS GCSI-DD reflect greater symptom severity. See, e.g., “User Manuel for the ANMS GCSI-DD,” Federal Drug Administration at https://www.fda.gov/media/125038/download, which is hereby incorporated by reference.
The severity scores of 4 gastroparesis-related symptoms (nausea, early satiety, postprandial fullness, upper abdominal pain) range from 0-none to 4-very severe. The vomiting score assesses the number of vomiting episodes during the day, capped at a maximum of 4; thus, the scores for vomiting range from 0 (no episodes of vomiting) to 4 (4 or more episodes of vomiting). Vomiting frequency is scored as 0 episodes, 1 episode, 2 episodes, 3 episodes, or 4 or more episodes (capped as 4).
Table 11 presents the ANMS GCSI-DD total and subscale scores and change and percent change from baseline for the ITT Population using the ANMS GC SI-DD Manual scoring method. […] Subjects receiving placebo also experienced decreases in ANMS GCSI-DD total and subscale scores.

In the case of `[2H]c1c([2H])c([2H])c2c([nH]c(=O)n2CCCN2CCC(n3c(=O)[nH]c4cc(Cl)ccc43)CC2)c1[2H]` [Deudomperidone, 1-{3-[4-(5-chloro-2-oxo-2,3-dihydro-1H-1,3-benzodiazol-1-yl)piperidin-1yl]propyl}-2,3-dihydro(4,5,6,7-D4)-1H-1,3-benzodiazol-2-one], the “ANMS GCSI-DD early satiety subscale score, Baseline” value (5 mg BID) is reported as 2.63, the “ANMS GCSI-DD early satiety subscale score, Change from baseline to Day 14/EOT” value (5 mg BID) is reported as −0.85 and the “ANMS GCSI-DD early satiety subscale score, Day 14/EOT” value (5 mg BID) is reported as 1.78. The “ANMS GCSI-DD early satiety subscale score, Percent change from baseline to Day 14/EOT” value (5 mg BID) was −30.65%, the “ANMS GCSI-DD nausea subscale score, Baseline” value (5 mg BID) was 2.59 and the “ANMS GCSI-DD nausea subscale score, Change from baseline to Day 14/EOT” value (5 mg BID) was −0.93. The “ANMS GCSI-DD nausea subscale score, Day 14/EOT” value (5 mg BID) was 1.67, the “ANMS GCSI-DD nausea subscale score, Percent change from baseline to Day 14/EOT” value (5 mg BID) was −41.32% and the “ANMS GCSI-DD postprandial fullness subscale score, Baseline” value (5 mg BID) was 2.93. For the same compound, the “ANMS GCSI-DD postprandial fullness subscale score, Change from baseline to Day 14/EOT” value (5 mg BID) was −0.70, the “ANMS GCSI-DD postprandial fullness subscale score, Day 14/EOT” value (5 mg BID) was 2.22 and the “ANMS GCSI-DD postprandial fullness subscale score, Percent change from baseline to Day 14/EOT” value (5 mg BID) was −26.11%. For the same compound, the “ANMS GCSI-DD total score, Baseline” value (5 mg BID) was 2.16, the “ANMS GCSI-DD total score, Day 14/EOT” value (5 mg BID) was 1.47 and the “ANMS GCSI-DD total score, change from baseline to Day 14/EOT” value (5 mg BID) was −0.69. For the same compound, the “ANMS GCSI-DD total score, percent change from baseline to Day 14/EOT” value (5 mg BID) was −35.01%, the “ANMS GCSI-DD upper abdominal pain subscale score, Baseline” value (5 mg BID) was 2.19 and the “ANMS GCSI-DD upper abdominal pain subscale score, Change from baseline to Day 14/EOT” value (5 mg BID) was −0.85. The “ANMS GCSI-DD upper abdominal pain subscale score, Day 14/EOT” value (5 mg BID) was 1.33, the “ANMS GCSI-DD upper abdominal pain subscale score, Percent change from baseline to Day 14/EOT” value (5 mg BID) was −43.15% and the “ANMS GCSI-DD vomiting subscale score, Baseline” value (5 mg BID) was 0.44. The “ANMS GCSI-DD vomiting subscale score, Change from baseline to Day 14/EOT” value (5 mg BID) was −0.11, the “ANMS GCSI-DD vomiting subscale score, Day 14/EOT” value (5 mg BID) was 0.33 and the “ANMS GCSI-DD vomiting subscale score, Percent change from baseline to Day 14/EOT” value (5 mg BID) was −64.00%. The “ANMS GCSI-DD early satiety subscale score, Baseline” value (10 mg BID) was 2.67, the “ANMS GCSI-DD early satiety subscale score, Change from baseline to Day 14/EOT” value (10 mg BID) was −1.08 and the “ANMS GCSI-DD early satiety subscale score, Day 14/EOT” value (10 mg BID) was 1.62. For the same compound, the “ANMS GCSI-DD early satiety subscale score, Percent change from baseline to Day 14/EOT” value (10 mg BID) was −40.56%, the “ANMS GCSI-DD nausea subscale score, Baseline” value (10 mg BID) was 2.52 and the “ANMS GCSI-DD nausea subscale score, Change from baseline to Day 14/EOT” value (10 mg BID) was −1.20. For the same compound, the “ANMS GCSI-DD nausea subscale score, Day 14/EOT” value (10 mg BID) was 1.34, the “ANMS GCSI-DD nausea subscale score, Percent change from baseline to Day 14/EOT” value (10 mg BID) was −48.88% and the “ANMS GCSI-DD postprandial fullness subscale score, Baseline” value (10 mg BID) was 3.01. For the same compound, the “ANMS GCSI-DD postprandial fullness subscale score, Change from baseline to Day 14/EOT” value (10 mg BID) was −1.24, the “ANMS GCSI-DD postprandial fullness subscale score, Day 14/EOT” value (10 mg BID) was 1.79 and the “ANMS GCSI-DD postprandial fullness subscale score, Percent change from baseline to Day 14/EOT” value (10 mg BID) was −41.52%. For the same compound, the “ANMS GCSI-DD total score, Baseline” value (10 mg BID) was 2.14, the “ANMS GCSI-DD total score, Day 14/EOT” value (10 mg BID) was 1.17 and the “ANMS GCSI-DD total score, change from baseline to Day 14/EOT” value (10 mg BID) was −0.98. The “ANMS GCSI-DD total score, percent change from baseline to Day 14/EOT” value (10 mg BID) was −44.07%, the “ANMS GCSI-DD upper abdominal pain subscale score, Baseline” value (10 mg BID) was 1.79 and the “ANMS GCSI-DD upper abdominal pain subscale score, Change from baseline to Day 14/EOT” value (10 mg BID) was −0.80. For the same compound, the “ANMS GCSI-DD upper abdominal pain subscale score, Day 14/EOT” value (10 mg BID) was 0.97, the “ANMS GCSI-DD upper abdominal pain subscale score, Percent change from baseline to Day 14/EOT” value (10 mg BID) was −50.43% and the “ANMS GCSI-DD vomiting subscale score, Baseline” value (10 mg BID) was 0.71. For the same compound, the “ANMS GCSI-DD vomiting subscale score, Change from baseline to Day 14/EOT” value (10 mg BID) was −0.59, the “ANMS GCSI-DD vomiting subscale score, Day 14/EOT” value (10 mg BID) was 0.14 and the “ANMS GCSI-DD vomiting subscale score, Percent change from baseline to Day 14/EOT” value (10 mg BID) was −71.73%.
